From patent US20230062537A1, “Therapy of oxygen pulses for treating neurodegenerative disorders such as Parkinson Disease (PD), Alzheimer’s Disease (AD), Amiotrophic Lateral Sclerosis (ALS) or Motor Neuron Disease (MND) and other dementias, and Lymphedema, Arthritis and Depression” (priority 2021, published 2023)
Read-outs that look alike come from different tables or passages of the source.

Assays:
Depression = conditions: method No 4
Method: (§1) The pulse oxygen therapy as described therein for treating neurodegenerative diseases (PD, AD, ALS, MS, Arthritis, Lymphedema and Depression) to patients with mild, moderate, severe, or critical conditions may be applied as follow: • 1. […] Patients must have comfortable accommodation (temperature, illumination and sanitary conditions). • 2. As prophylactic treatment (elder patients and/or with chronic diseases) treat patients with 6 l/min oxygen flow for 60 min once a day during 5 days. • 3. As treatment for patients with mild disease (initial symptoms) treat patients with 6 l/min oxygen flow for 60 min once a day during 10 days. • 4. As treatment for patients with moderate disease treat patients with 6 l/min oxygen flow for 60 min twice a day during 10 days. • 5. As treatment for patients with severe disease treat patients with 6 l/min oxygen flow for 60 min four time a day during 10 days. • 6. As treatment for patients with critical disease treat patients with 6 l/min oxygen flow for 60 min every 3 hours during 10 days.

Lymphedema = conditions: method No 4
Method: as §1

Arthritis = conditions: method No 4
Method: as §1

Parkinson Disease = system: Parkinson Disease
Method: as §1

[1] = system: PD, AD, ALS, Arthritis, Lymphedema, and Depression patients
Method: In our therapy the oxygen pulses are administered in consonance with the advance of the neurodegenerative diseases (PD, AD, ALS, MS, Arthritis, Lymphedema and Depression) as described as follow: • a. At the beginning of the neurodegenerative disease with the apparition of the first symptoms using procedure 1 or 2 twice a day for 5 days. • b. When the neurodegenerative disease has been detected, with a medical diagnostic, using procedure 1 or 2 four times a day for 10 days. • c. With an advanced neurodegenerative disease using procedure 1 or 2 eight times a day for 10 days

[2] = for oxygen transported to the tissues: cardiac flow of 1 l/min
Text: At sea level, (non humidified) room air contains 21% O2 which translates into an oxygen partial pressure of 160 mm Hg [0.21*760 mm Hg)]. However, the body mean tissue oxygen levels are much lower than this level. Alveolar air contains 14% oxygen (106 mm Hg), arterial oxygen concentration is 12% (91 mm Hg), venous oxygen levels are 5.3% (40 mm Hg), and mean tissue intracellular oxygen concentration is only 3% (22 mm Hg (Guyton, and Hall, 1996). Furthermore, direct microelectrode measurements of tissue O2 reveal that parts of the brain normally experience O2 levels considerably lower than total body mean tissue oxygen levels, reflecting the high oxygen utilization in brain. These studies also highlight considerable regional variation in average brain oxygen levels (Table 1) that have been attributed to local differences in capillary density. Mean brain tissue oxygen concentration in adult rates is 1.5% (Silver and Erecinska, 1988), and mean fetal sheep brain oxygen tension has also been estimated at 1.6% (Koos and Power, 1987).
If we inspire air at normal pressure of 760 mm Hg (O221%) alveolar oxygen content will be 14% (106 mm Hg) and arterial oxygen content 12% (91 mm Hg). However arterial oxygen content includes oxygen content in the Hemoglobin plus oxygen absorbed in the plasma. (Mathews and Van Holde, 2002)
Oxygen content in the Hemoglobin (ml/dL)=Hb (g/dL)*% Sat.*[…]
At 100 mmHg oxygen pressure and 100% Hemoglobin saturation Oxygen content in the arterial blood is 20.7 ml/dL
If we consider a normal cardiac flow of 1 l/min, oxygen transported to the tissues would be […] or 0.924 mol-g of oxygen (5.57*10^23 molecules of oxygen/min.).
If we inspire oxygen enriched air of 31% O2, arterial pressure of oxygen would be (31/21)*100=147 mm Hg
Also oxygen content at the brain tissue will be:
Oxygen content in the arterial blood=Oxygen in Hemoglobin+Oxygen absorbed in the plasma
If we inspire oxygen of 95% O2, arterial pressure of oxygen would be (95/21)*100=452 mm Hg

additional flow of oxygen ([2]; 31% O2 inspired): 0.15 L/min
increase of the oxygen transport to the tissues ([2]; 31% O2 inspired): 0.72%
Oxygen content in the arterial blood ([2]; 31% O2 inspired, 147 mm Hg): 20.85 ml/dL
oxygen transported to the tissues ([2]; 31% O2 inspired): 20.85 l Oxygen/min
Oxygen at the brain level, Cortex (gray) ([2]; 31% oxygen inspired): 3.69-7.79 % O2
Oxygen at the brain level, Cortex (white) ([2]; 31% oxygen inspired): 1.17-3.0 % O2
Oxygen at the brain level, Hippocampus ([2]; 31% oxygen inspired): 3.8-5.7 % O2
Oxygen at the brain level, Hypothalamus ([2]; 31% oxygen inspired): 2.0-3.0 % O2
Oxygen at the brain level, Pons, fornix ([2]; 31% oxygen inspired): 0.14-0.58 % O2
additional flow of oxygen ([2]; 95% O2 inspired): 1.4 L/min
increase of oxygen flow to the tissues ([2]; 95% O2 inspired): 6.76%
Oxygen content in the arterial blood ([2]; 95% O2 inspired, 452 mm Hg): 21.80 ml/dL
oxygen transported to the tissues ([2]; 95% O2 inspired): 21.80 l Oxygen/min
Oxygen at the brain level, Cortex (gray) ([2]; 95 % oxygen inspired): 11.3-23.8 % O2
Oxygen at the brain level, Cortex (white) ([2]; 95 % oxygen inspired): 3.58-9.18 % O2
Oxygen at the brain level, Hippocampus ([2]; 95 % oxygen inspired): 11.6-17.4 % O2
Oxygen at the brain level, Hypothalamus ([2]; 95 % oxygen inspired): 6.12-9.18 % O2
Oxygen at the brain level, Pons, fornix ([2]; 95 % oxygen inspired): 0.42-1.77 % O2
arterial pressure of oxygen ([2]; oxygen enriched air of 31% O2 inspired): 147 mm Hg
arterial pressure of oxygen ([2]; oxygen of 95% O2 inspired): 452 mm Hg
SMILES: O=O [oxygen]
Depression at follow-up (Depression; after 11 months): no more Depression has been detected
outcome after 10 days (Depression; after 10 days): a notable recuperation takes place
time to begin of recovery (Depression; person, severe Depression): 5 days
limbs inflammation at follow-up (Lymphedema; after 11 months): no limbs inflammation has developed
outcome after 10 days (Lymphedema; after 10 days): a notable recuperation takes place
time to begin of recovery (Lymphedema; person, severe limbs inflammation after cancer radiotherapy): 5 days
deformation at follow-up (Arthritis; after 12 months): no more deformation has been observed
outcome after 10 days (Arthritis; after 10 days): a notable recuperation takes place
time to begin of recovery (Arthritis; person, severe deformation in hands): 5 days
symptoms at follow-up (Parkinson Disease; after 12 months, method No 4): no AD symptoms has developed
time to recovery (Parkinson Disease; patient, moderate conditions, method No 4: 6 l/min oxygen flow 60 min twice a day during 10 days): 5 days
use of the therapy in patients [1]: satisfactory used
